Reference: patent US6809083B1, “Use of N-substituted-1, 5-dideoxy-1, 5-imino-D-glucitol compounds for treating hepatitis virus infections” (priority 1998, dated 2004)

Experiments:
Hepatitis B Virus [1] = assay: IC-90 of N-nonyl-DNJ (T. Block and G. Jacob, unpublished observation); assay type: cell-based
Experimental: The anti-hepatitis B virus effect of (−)-2′-deoxy-3′-thiocytidine-5′-triphosphate (3TC) alone and in combination with N-nonyl-DNJ was determined according to Korba ((1996) Antiviral Research 29(1):49-51), using the “combostat” strategy (Comstat Program, Combostat Corp., Duluth, Minn.). The combostat method involves serially diluting the IC-90 of each compound. The IC-90 of N-nonyl-DNJ has been determined to be between 4 and 10 μg/ml (T. Block and G. Jacob, unpublished observation). The accepted IC-90 for 3TC in HepG 2.2.15 (2.2.15) cells is 300 nM to 500 nM (Doong et al. (1991) Proc. Natl. Acad. Sci. USA 88:8495-8499).

[2] = test system: woodchuck hepatitis virus (WHV); assay: Woodchuck model, N-nonyl-DNJ monotherapy, BID oral dosing for 4 weeks; total HBV DNA and IPDNA by quantitative PCR; assay type: in vivo
Description: In order to evaluate the efficacy of N-nonyl-DNJ in combination with 3TC (or other nucleoside or nucleotide analogs) against Hepatitis B virus in a woodchuck animal model, an monotherapy experiment using N-nonyl-DNJ alone was first conducted. This was necessary to determine if N-nonyl-DNJ has any anti-HBV effect in the woodchuck and, if N-nonyl-DNJ has a beneficial effect, to design a combination study based on the dose-response relationship of this drug alone.
Therefore, five groups of four animals each (all groups had both sexes, all but the control had two of each sex) were assigned to 0, 12.5, 25, 50, and 100 mg/kg/day with BID oral dosing. These were lab-reared wild animals. All animals were infected with woodchuck hepatitis virus (WHV) as neonates, and had been tested positive on serological tests for WHV surface antigen. Blood samples were drawn one week prior to dosing (−1 week), immediately before dosing (0 weeks), weekly during dosing (1, 2, 3, and 4 weeks), and after the end of dosing (5, 6, 8, and 10 weeks).
There are two measures of drug efficacy: reduction in total HBV DNA (measured by quantitative PCR), and reduction in HBV DNA from capsids with intact surface glycoproteins, which is the active form of the virus (measured by an ELISA-like immune precipitation assay followed by quantitative PCR).
Before models are fitted to the data, a log transform was applied because: 1) the variation in IPDNA increases with increasing IPDNA values; the log transformation gives values with a nearly constant variation, and 2) it is expected that drug effects will appear as a constant multiplier of the IPDNA level. Because there are zero values of IPDNA, a small value (about 1/2 of the smallest non-zero value) was added to all values before the log transform.
Two approaches were used to model the changes in slope to week with dose of N-nonyl-DNJ: a linear modeling approach and a nonlinear model. Both approaches assume that the (linear) rate of change of the Log(IPDNA) measure over the dosing period is the “right” measure to reflect the effect of the drug on the virus. Both approaches are fit in stages, and the first stage is common to both approaches. First, a simple straight line regression model is fit using weeks 0-4 to predict log(IPDNA+10) separately for each animal by run combination. In the second stage, the response variable is the slope fitted in the first stage.
For the linear approach, a model is fit with slope to week as the response where run is considered a block, dose has a significant effect (almost all of this effect is due to a slope to dose), and the relevant error for testing the effect of dose is the variation among animals treated alike (after the adjustment for the runs as blocks). This is similar to using the calibration data within each run to first adjust each run's data to a common virus DNA concentration; the difference is that here the data from the woodchucks are used for the run adjustment rather than only the calibration data.
For the nonlinear approach, a four parameter logistic model is fit with the slope to week as the response and the dose as the predictor. Again, run is considered a block, but because no run has all weeks, it is not possible to fully reflect the blocking in the nonlinear approach. […] The average maximum slope observed was 2.71 additional Log(IPDNA μg/mL)/week, or an increase of about 150%/week, the average minimum slope observed with N-nonyl-DNJ is 0.31 fewer Log(IPDNA μg/mL)/week), or about a decrease of about 25%/week. The slopes, the fitted model, the parameter estimates from the model, and the approximate standard errors for these parameters are all shown in FIG. 3. […] Whether in woodchucks or humans, the effective dose of both the N-alkyl-DNJ and nucleoside or nucleotide antiviral agent administered in combination therewith can be administered in two equal daily subdoses (i.e., B.I.D.).

Hepatitis B Virus [3] = assay: Hepatitis B virus secretion from chronically HBV secreting HepG2.2.15 cells (preS1 immunoprecipitation of virions, PCR of viral DNA); assay type: cell-based; conditions: 3 days incubation
Experimental: (§1) The anti-hepatitis B virus activity and effect on cell viability of a number of different N-substituted-1,5-dideoxy-1,5-imino-D-glucitol compounds were assessed using an in vitro assay employing chronically hepatitis B virus secreting HepG2.2.15 cells. The method employed was essentially that described in Block et al. (1994) Proc. Natl. Acad. Sci. USA 91:2235-2239.

HepG2.2.15 cells = assay: Viability of HepG2.2.15 cells, trypan blue exclusion; assay type: cell-based; conditions: [200] and [1000]; trypan blue staining not performed
Experimental: as §1

[4] = concentration [200] (unit not given)
[5] = concentration [1000] (unit not given)

SMILES	IC90 (Hepatitis B Virus [1]) [µg/mL]	effect on total HBV DNA measurements ([2]; woodchuck, all dose levels, pre-dose and dosed portions of the study)	average minimum slope observed ([2]; woodchuck, weeks 0-4)	decrease of IPDNA corresponding to average minimum slope ([2]; woodchuck, weeks 0-4)	increase of IPDNA corresponding to average maximum slope ([2]; woodchuck, weeks 0-4)	average maximum slope observed ([2]; woodchuck, weeks 0-4, upper end of dose-response model)	approximate effective monotherapy dose ([2]; woodchucks, oral)	Relative amount of HBV secreted, as a % of control (Hepatitis B Virus [3]; [4])	Relative amount of HBV secreted, as a % of control (Hepatitis B Virus [3]; [5])	Appearance of cells by gross microscopic examination (HepG2.2.15 cells)
CCCCCCCCCN1C[C@H](O)[C@@H](O)[C@H](O)[C@H]1CO [Compound 1, N-(n-nonyl)-1,5-dideoxy-1,5-imino-D-glucitol]	4 to 10	no effect	0.31 fewer Log(IPDNA μg/mL)/week	about 25 %/week	about 150 %/week	2.71 additional Log(IPDNA μg/mL)/week	about 16 mg/kg/day			
CCC(CC)CN1C[C@H](O)[C@@H](O)[C@H](O)[C@H]1CO [Compound 3, N-(2-ethylbutyl)-1,5-dideoxy-1,5-imino-D-glucitol]								45.0 +/− 30 (n = 3) % of control	5.0 +/− 20 (n = 3) % of control	^5Although trypan blue viability staining was not performed, cells appeared unremarkable (healthy) by gross microscopic examination.
CCCCN1C[C@H](O)[C@@H](O)[C@H](O)[C@H]1CO [NBDNJ, N-(n-butyl-)-1,5-dideoxy-1,5-imino-D-glucitol, reference compound]								37.0 +/− 13 (n = 15) % of control	3.2 +/− 5 (n = 15) % of control	
